Experimental data as given in US11389414B2, “Methods for treating atherosclerosis with gamma-ketoaldehyde scavengers” (Vanderbilt University, priority 2017, dated 2022).

What was measured:
MDA-LDL adducts = assay: Plasma MDA-LDL sandwich ELISA; format: in vivo, mouse; conditions: western diet 16 weeks
Procedure: (§1) Mice: Ldlr^−/− and WT on C57BL/6 background mice were obtained from the Jackson Laboratory. Animal protocols were performed according to the regulations of Vanderbilt University's Institutional Animal Care and Usage Committee. Mice were maintained on chow or a Western-type diet containing 21% milk fat and 0.15% cholesterol (Teklad). Eight week old, female mice were pretreated mice with vehicle alone (Water) or containing either 1 g/L of 4-HOBA or 1 g/L of 2-HOBA. After two weeks, the mice continued to receive treatment and were administered a Western diet for 16 weeks to induce hypercholesterolemia and atherosclerosis.
(§2) Measurement of MDA-LDL, MDA-HDL, and MDA-ApoAI: Sandwich ELISA was used to measure plasma MDA-LDL and MDA-HDL levels following the manufacturer's instructions (Cell BioLabs, Inc.). Briefly, isolated LDL or HDL samples and MDA-HDL standards were added onto anti-MDA coated plates, and after blocking, the samples were incubated with biotinylated anti-apoB or anti-ApoAI primary antibody. The samples were then incubated for 1 h with streptavidin-enzyme conjugate and 15 min with substrate solution. After stopping the reaction, the O.D. was measured at 450 nm wavelength. MDA-ApoAI was detected in mouse plasma by immunoprecipitation of ApoAI and western blotting. […] Proteins were visualized and quantitated by Odyssey 3.0 Quantification software (LI-COR).

aortic endothelial cells = assay: H2O2 induced apoptosis, Annexin V staining, endothelial cells; format: cell-based, mouse; conditions: 250 μM H2O2, 24 h; compared to vehicle or 4-HOBA
Procedure: (§3) Cell Culture: Peritoneal macrophages were isolated from mice 72 hours post injection of 3% thioglycollate and maintained in DMEM plus 10% fetal bovine serum (FBS, Gibco) as previously described. Human aortic endothelial cells (HAECs) were obtained from Lonza and maintained in endothelial cell basal medium-2 plus 1% FBS and essential growth factors (Lonza).
(§4) In vitro Cellular Apoptosis and Analysis of Lesion Apoptosis and Efferocytosis: Cell apoptosis was induced as indicated and detected by fluorescent labeled Annexin V staining and quantitated by either Flow Cytometry (BD 5 LSRII) or counting Annexin V positive cells in images captured under a fluorescent microscope. The apoptotic cells in atherosclerotic lesion were measured by TUNEL staining of cross-sections of atherosclerotic proximal aorta as previously described. The TUNEL positive cells not associated with live macrophages were considered free apoptotic cells and macrophage-associated apoptotic cells were considered phagocytosed as a measure of lesion efferocytosis as previously described.

primary macrophages = assay: H2O2 induced apoptosis, Annexin V staining, macrophages; format: cell-based, mouse; conditions: 250 μM H2O2, 24 h; compared to vehicle or 4-HOBA
Procedure: as §3, §4

peritoneal macrophages = assay: Macrophage inflammatory response, real time PCR of IL-1β, IL-6, TNF-α mRNA; format: cell-based, mouse; conditions: oxidized LDL, 24 h
Procedure: as §3
RNA Isolation and Real-Time RT-PCR: Total RNA was extracted and purified using Aurum Total RNA kit (Bio-Rad) according to the manufacturer's protocol. Complementary DNA was synthesized with iScript reverse transcriptase (Bio-Rad). Relative quantitation of the target mRNA was performed using specific primers, SYBR probe (Bio-Rad), and iTaqDNA polymerase (Bio-Rad) on IQ5 thermocylcer (Bio-Rad) and normalized with 18S, as described earlier. 18S, IL-1β and TNF-α primers used were as described earlier.

MDA-apoAI adducts = assay: Plasma apoAI immunoprecipitation and western blotting for MDA-apoAI and apoAI; format: in vivo, mouse; conditions: western diet 16 weeks
Procedure: as §1
Measurement of MDA-LDL, MDA-HDL, and MDA-ApoAI: Sandwich ELISA was used to measure plasma MDA-LDL and MDA-HDL levels following the manufacturer's instructions (Cell BioLabs, Inc.). Briefly, isolated LDL or HDL samples and MDA-HDL standards were added onto anti-MDA coated plates, and after blocking, the samples were incubated with biotinylated anti-apoB or anti-ApoAI primary antibody. The samples were then incubated for 1 h with streptavidin-enzyme conjugate and 15 min with substrate solution. After stopping the reaction, the O.D. was measured at 450 nm wavelength. MDA-ApoAI was detected in mouse plasma by immunoprecipitation of ApoAI and western blotting. Briefly, 50 μl of mouse plasma were prepared with 450 μL of IP Lysis Buffer (Pierce) plus 0.5% protease inhibitor mixture (Sigma), and immunoprecipitated with 10 μg of polyclonal antibody against mouse ApoAI (Novus). Then 25 μL of magnetic beads (Invitrogen) was added, and the mixture was incubated for 1 h at 4° C. with rotation. The magnetic beads were then collected, washed three times, and SDS-PAGE sample buffer with β-mercaptoethanol was added to the beads. After incubation at 70° C. for 5 min, magnetic field was applied to the Magnetic Separation Rack (New England), and the supernatant was used for detecting mouse ApoAI or MDA. For Western blotting, 30-60 μg of proteins was resolved by NuPAGE Bis-Tris electrophoresis (Invitrogen), and transferred onto nitrocellulose membranes (Amersham Bioscience). Membranes were probed with primary rabbit antibodies specific for ApoAI (Novus) or MDA (Cell signaling) and fluorescent tagged IRDye 680 (LI-COR) secondary antibody. Proteins were visualized and quantitated by Odyssey 3.0 Quantification software (LI-COR).

[1] = Body weight and plasma total cholesterol and triglyceride levels of treated mice; format: in vivo, mouse; conditions: compared to vehicle or 4-HOBA; data not shown
Procedure: as §1

[2] = tested on: hypercholesterolemic Ldlr^−/− mice; assay: Atherosclerosis analysis (Oil-Red-O proximal aorta cross-sections and en face aorta) in western diet fed mice; format: in vivo, mouse; conditions: western diet 16 weeks; for reduction of atherosclerosis, en face analysis of the aorta / reduction of the extent of proximal aortic atherosclerosis: 1 g/L in water
Procedure: as §1
(§5) Atherosclerosis Analyses and Cross-section Immunofluorescence Staining: The extent of atherosclerosis was examined both in Oil-Red-O-stained cross-sections of the proximal aorta and by en face analysis using the KS300 imaging system (Kontron Elektronik GmbH). For immunofluorescence staining, 5 μm cross-sections of the proximal aorta were fixed in cold acetone (Sigma), blocked in Background Buster (Innovex), incubated with indicated primary antibodies (MDA and CD68) at 4° C. for overnight. After incubation with fluorescent labeled secondary antibodies at 37 C for 1 hour, the nucleus was counter stained with Hoechst. Images were captured with a fluorescence microscope (Olympus IX81) and SlideBook 6 (Intelligent-Image) software and quantitated using ImageJ software (NIH).

[3] = background statement; cited from earlier work
MDA-HDL adducts = assay: Plasma MDA-HDL sandwich ELISA; format: in vivo, mouse; conditions: western diet 16 weeks
Procedure: as §1, §2

[4] = tested on: atherosclerotic lesions of Ldlr^−/− mice; assay: Lesion apoptosis (TUNEL) and efferocytosis in proximal aorta sections; format: in vivo, mouse
Procedure: as §1, §4

[5] = tested on: MDA content of proximal aortic atherosclerotic lesions in Ldlr^−/− mice; assay: MDA immunofluorescence of proximal aortic atherosclerotic lesions; format: in vivo, mouse
Procedure: as §1, §5

[6] = tested on: atherosclerotic lesions of Ldlr^−/− mice; assay: Masson's Trichrome staining of lesions (collagen content, fibrous cap thickness, necrotic core); format: in vivo, mouse
Procedure: as §1
Masson's Trichrome Staining: Masson's Trichrome Staining was applied for measurement of atherosclerotic lesion collagen content, fibrous cap thickness and necrotic core size following the manufacture's instruction (Sigma) and as previously described. Briefly, 5 μm cross-sections of proximal atherosclerotic aorta root were fixed with Bouin's solution, stained with hematoxylin for nuclei (black), biebrich scarlet and phosphotungstic/phosphomolybdic acid for cytoplasm (red), and aniline blue for collagen (blue). Images were captured and analyzed for collagen content, atherosclerotic cap thickness and necrosis core by ImageJ software as described earlier.

[7] = background statement; cited from earlier work; remark: listed apart in the source
[8] = tested on: ApoE−/− macrophage foam cells; assay: Capacity of HDL isolated from treated mice to reduce macrophage cholesterol; format: cell-based, mouse; conditions: HDL 25 μg protein/ml, 24 h
Procedure: as §1
HDL Isolation from Mouse Plasma and Measurement of HDL Capacity to Reduce Macrophage Cholesterol: HDL was isolated from mouse plasma using HDL Purification Kit (Cell BioLabs, Inc.) following the manufacturer's protocol. Briefly, apoB containing lipoproteins and HDL were sequentially precipitated with dextran sulfate. The HDL was then resuspended and washed. After removing the dextran sulfate, the HDL was dialyzed against PBS. To measure the capacity of the HDL to reduce macrophage cholesterol, apoE^−/− macrophages were cholesterol enriched by incubation for 48 h in DMEM containing 100 μg protein/ml of acetylated LDL. […] Cellular cholesterol was measured before and after incubation with HDL using an enzymatic cholesterol assay as described.

macrophages = assay: In vitro modification of LDL with MDA, then macrophage cholesterol content; format: cell-based; conditions: 2-HOBA present during LDL (5 mg/mL) modification with MDA (10 mM); versus vehicle; LDL with macrophages 24 h
Procedure: Modification of HDL and LDL with MDA: MDA was prepared immediately before use by rapid acid hydrolysis of maloncarbonyl bis-(dimethylacetal) as described. Briefly, 20 μL of 1 M HCl was added to 200 μL of maloncarbonyl bis-(dimethylacetal), and the mixture was incubated for 45 min at room temperature. The MDA concentration was determined by absorbance at 245 nm, using the coefficient factor 13, 700 M-1 cm-1. HDL (10 mg of protein/mL) and increasing doses of MDA (0, 0.125 mM, 0.25 mM, 0.5 mM, 1 mM) were incubated at 37° C. for 24 h in 50 mM sodium phosphate buffer (pH7.4) containing DTPA 100 μM. Reactions were initiated by adding MDA and stopped by dialysis of samples against PBS at 4° C. LDL (5 mg/mL) was modified in vitro with MDA (10 mM) in the presence of vehicle alone or with 2-HOBA at […] for 24 h in 50 mM sodium phosphate buffer (pH7.4) containing DTPA 100 μM. Reactions were initiated by adding MDA and stopped by dialysis of samples against PBS at 4° C. The LDL samples were incubated for 24 h with macrophages and the cholesterol content of the cells was measured using an enzymatic cholesterol assay as described.

[9] = background statement; cited from earlier work; remark: listed apart in the source
[10] = in contrast to vehicle or 4-HOBA
[11] = summary value, compared to vehicle or 4-HOBA
[12] = compared to Ldlr−/− mice consuming a chow diet

SMILES: NCc1ccccc1O [2-HOBA, 2-hydroxybenzylamine]
- reduction of plasma MDA-LDL levels (MDA-LDL adducts; compared to 4-HOBA): 54%
- reduction of plasma MDA-LDL levels (MDA-LDL adducts; compared to vehicle): 57%
- number of apoptotic cells in endothelial cell cultures (aortic endothelial cells): markedly decreased
- number of apoptotic cells in macrophage cultures (primary macrophages): markedly decreased
- IL-1β mRNA level (peritoneal macrophages): significantly reduced
- IL-6 mRNA level (peritoneal macrophages): significantly reduced
- TNF-α mRNA level (peritoneal macrophages): significantly reduced
- plasma MDA-apoAI adducts (MDA-apoAI adducts; [10]): dramatically reduced
- plasma apoAI levels (MDA-apoAI adducts; [10]): increased
- effect on body weight [1]: did not affect
- reduction of atherosclerosis, en face analysis of the aorta ([2]; compared to 4-HOBA): 59.1%
- reduction of the extent of proximal aortic atherosclerosis ([2]; compared to 4-HOBA): 31.5%
- reduction of atherosclerosis, en face analysis of the aorta ([2]; compared to vehicle): 60.3%
- reduction of the extent of proximal aortic atherosclerosis ([2]; compared to vehicle): 31.1%
- decrease of atherosclerosis in en face aortas [2, 11]: 60%
- decrease of atherosclerosis in the proximal aortas [2, 11]: 31%
- oral bioavailability [3]: orally bioavailable
- reduction of plasma MDA-HDL levels (MDA-HDL adducts; compared to 4-HOBA): 56%
- reduction of plasma MDA-HDL levels (MDA-HDL adducts; compared to vehicle): 57%
- number of TUNEL positive cells not associated with macrophages, fold increase (efferocytosis) ([4]; 4-HOBA treated mice versus 2-HOBA treated mice): 2.0 fold
- reduction of the number of TUNEL positive cells in the proximal aortic lesion ([4]; compared to 4-HOBA): 72.4%
- reduction of the number of TUNEL positive cells in the proximal aortic lesion ([4]; compared to vehicle): 72.9%
- reduction of the number of atherosclerotic lesion TUNEL positive cells ([4]; summary value, compared to 4-HOBA or vehicle treated mice): 72%
- number of TUNEL positive cells not associated with macrophages, fold increase (efferocytosis) ([4]; vehicle treated mice versus 2-HOBA treated mice): 1.9 fold
- reduction of MDA levels in the proximal aorta ([5]; compared to 4-HOBA): 66.8%
- reduction of MDA levels in the proximal aorta ([5]; compared to vehicle alone): 68.5%
- increase of collagen content of the proximal aorta ([6]; compared to 4-HOBA): 2.6 fold
- increase of collagen content of the proximal aorta ([6]; compared to vehicle): 2.7 fold
- increased collagen content ([6]; summary value): 2.7 fold
- increased fibrous cap thickness ([6]; summary value): 2.1 fold
- reduction in necrotic core ([6]; summary value, p<0.01): 69%
- decrease of % necrotic area in the proximal aorta ([6]; versus 4-HOBA): 73.5%
- fibrous cap thickness, fold greater ([6]; versus 4-HOBA treated mice): 2.29 fold
- decrease of % necrotic area in the proximal aorta ([6]; versus vehicle): 74.8%
- fibrous cap thickness, fold greater ([6]; versus vehicle treated mice): 2.31 fold
- reaction with lipid dicarbonyls (dicarbonyl scavenger) [7]: rapidly reacts
- efficiency of HDL from treated mice at reducing cholesterol stores in macrophage foam cells, fold ([8]; versus 4-HOBA treated mice): 1.7 fold
- efficiency of HDL from treated mice at reducing cholesterol stores in macrophage foam cells, fold ([8]; versus vehicle treated mice): 2.2 fold
- ability of MDA modified LDL to increase cholesterol accumulation in macrophages (macrophages): reduced
- reaction with lipid monocarbonyls [9]: not with lipid monocarbonyls

SMILES: NCc1ccc(O)cc1 [4-HOBA, 4-hydroxybenzylamine, reference compound]
- plasma apoAI levels (MDA-apoAI adducts; [12]): reduced
- plasma levels of MDA-apoAI (MDA-apoAI adducts; [12]): markedly increased
- atheroprotection ([2]; Ldlr−/− mice): not atheroprotective
- oral bioavailability [3]: orally bioavailable
- reaction with lipid dicarbonyls (dicarbonyl scavenger) [7]: ineffective
